Reference: ChEMBL document CHEMBL1135358, “Antifungal sordarins. Synthesis and structure-activity relationships of 3'-O-substituted derivatives” (2002)
Converted amounts (≈) assume the structure as drawn.

How the values were obtained:
Format in all cases: functional
[1] = test system: Candida albicans; assay: In vitro Minimum inhibitory concentration (MIC) for antifungal activity against Candida albicans 2005
[2] = test system: Kluyveromyces marxianus; assay: In vitro Minimum inhibitory concentration (MIC) for antifungal activity against Candida pseudotropicalis 2371
[3] = test system: Candida tropicalis; assay: In vitro Minimum inhibitory concentration (MIC) for antifungal activity against Candida tropicalis 2808
[4] = test system: Candida albicans; assay: In vitro Minimum inhibitory concentration (MIC) for antifungal activity against Candida albicans 2402
[5] = test system: Cryptococcus neoformans; assay: In vitro Minimum inhibitory concentration (MIC) for antifungal activity against Cryptococcus neoformans 2867
[6] = test system: Candida albicans; assay: In vitro Minimum inhibitory concentration (MIC) for antifungal activity against Candida albicans 1208
[7] = test system: Candida tropicalis; assay: In vitro Minimum inhibitory concentration (MIC) for antifungal activity against Candida tropicalis 2808E
[8] = test system: Kluyveromyces marxianus; assay: In vitro Minimum inhibitory concentration (MIC) for antifungal activity against Candida pseudotropicalis 2371E
[9] = test system: Candida albicans; assay: In vitro Minimum inhibitory concentration (MIC) for antifungal activity against Candida albicans 1208E
[10] = test system: Cryptococcus neoformans; assay: In vitro Minimum inhibitory concentration (MIC) for antifungal activity against Cryptococcus neoformans 2867E
[11] = test system: Candida albicans; assay: In vitro Minimum inhibitory concentration (MIC) for antifungal activity against Candida albicans 2402E
[12] = test system: Candida albicans; assay: In vitro Minimum inhibitory concentration (MIC) for antifungal activity against Candida albicans 2005E

Row | SMILES | MIC [1] | MIC [2] | MIC [3] | MIC [4] | MIC [5] | MIC [6] | MIC [7] | MIC [8] | MIC [9] | MIC [10] | MIC [11] | MIC [12]
1 | CCCCCCCCOC(=O)O[C@H]1C(O)[C@H](OCC23C[C@@H]4[C@H](C)CC[C@H]4C4(C=O)CC2C=C(C(C)C)C34C(=O)O)O[C@H](C)[C@H]1OC (some centres undefined) | 0.25 µg/mL (≈ 0.385 µM) | 0.12 µg/mL (≈ 0.185 µM) | 8 µg/mL (≈ 12.3 µM) | 0.5 µg/mL (≈ 0.771 µM) | 8 µg/mL (≈ 12.3 µM) | 1 µg/mL (≈ 1.54 µM) |  |  |  |  |  | 
2 | CO[C@@H]1[C@@H](C)O[C@@H](OCC23C[C@@H]4[C@H](C)CC[C@H]4C4(C=O)CC2C=C(C(C)C)C34C(=O)O)C(O)[C@@H]1OC(=O)OCc1ccccc1 (some centres undefined) | 2 µg/mL (≈ 3.19 µM) | 2 µg/mL (≈ 3.19 µM) | 8 µg/mL (≈ 12.8 µM) | 8 µg/mL (≈ 12.8 µM) | > 62 µg/mL | 8 µg/mL (≈ 12.8 µM) |  |  |  |  |  | 
3 | CCCCC(C)C(=O)OC1C(O)[C@H](OCC23C[C@@H]4[C@H](C)CC[C@H]4C4(C=O)CC2C=C(C(C)C)C34C(=O)O)O[C@H](C)[C@H]1OC (single isomer, unassigned) | 0.008 µg/mL (≈ 0.0132 µM) | 0.06 µg/mL (≈ 0.0992 µM) | 0.25 µg/mL (≈ 0.413 µM) | 0.06 µg/mL (≈ 0.0992 µM) | 8 µg/mL (≈ 13.2 µM) | 0.12 µg/mL (≈ 0.198 µM) |  |  |  |  |  | 
4 | CO[C@H]1C(OC(=O)CCCCCl)C(O)[C@H](OCC23C[C@@H]4[C@H](C)CC[C@H]4C4(C=O)CC2C=C(C(C)C)C34C(=O)O)O[C@@H]1C (single isomer, unassigned) | 0.12 µg/mL (≈ 0.196 µM) | 0.25 µg/mL (≈ 0.409 µM) | 1 µg/mL (≈ 1.64 µM) | 2 µg/mL (≈ 3.27 µM) | 16 µg/mL (≈ 26.2 µM) | 2 µg/mL (≈ 3.27 µM) |  |  |  |  |  | 
5 | CCCCCC(=O)OC1C(O)[C@H](OCC23C[C@@H]4[C@H](C)CC[C@H]4C4(C=O)CC2C=C(C(C)C)C34C(=O)O)O[C@H](C)[C@H]1OC (single isomer, unassigned) | 0.015 µg/mL (≈ 0.0254 µM) | 0.01 µg/mL (≈ 0.0169 µM) | 0.03 µg/mL (≈ 0.0508 µM) | 0.25 µg/mL (≈ 0.423 µM) | 16 µg/mL (≈ 27.1 µM) | 0.25 µg/mL (≈ 0.423 µM) |  |  |  |  |  | 
6 | CCCCCCCCCC(=O)OC1C(O)[C@H](OCC23C[C@@H]4[C@H](C)CC[C@H]4C4(C=O)CC2C=C(C(C)C)C34C(=O)O)O[C@H](C)[C@H]1OC (single isomer, unassigned) | 0.25 µg/mL (≈ 0.386 µM) | 0.25 µg/mL (≈ 0.386 µM) | 8 µg/mL (≈ 12.4 µM) | 1 µg/mL (≈ 1.55 µM) | 1 µg/mL (≈ 1.55 µM) | 1 µg/mL (≈ 1.55 µM) |  |  |  |  |  | 
7 | CO[C@H]1C(OC(=O)c2ccccc2)C(O)[C@H](OCC23C[C@@H]4[C@H](C)CC[C@H]4C4(C=O)CC2C=C(C(C)C)C34C(=O)O)O[C@@H]1C (single isomer, unassigned) | 0.12 µg/mL (≈ 0.201 µM) | 0.25 µg/mL (≈ 0.419 µM) | 0.5 µg/mL (≈ 0.838 µM) | 1 µg/mL (≈ 1.68 µM) | > 125 µg/mL | 1 µg/mL (≈ 1.68 µM) |  |  |  |  |  | 
8 | CCCCCCOC1[C@H](O)[C@H](OCC23C[C@@H]4[C@H](C)CC[C@H]4C4(C=O)CC2C=C(C(C)C)C34C(=O)O)O[C@H](C)[C@H]1OC (single isomer, unassigned) |  |  |  |  |  |  | 1 µg/mL (≈ 1.73 µM) | 0.25 µg/mL (≈ 0.433 µM) | 4 µg/mL (≈ 6.94 µM) | 31 µg/mL (≈ 53.7 µM) | 2 µg/mL (≈ 3.47 µM) | 0.25 µg/mL (≈ 0.433 µM)

Continued, values first:

Row | MIC [1] | MIC [2] | MIC [3] | MIC [4] | MIC [5] | MIC [6] | MIC [7] | MIC [8] | MIC [9] | MIC [10] | MIC [11] | MIC [12] | SMILES
9 | 0.06 µg/mL (≈ 0.0926 µM) | 1 µg/mL (≈ 1.54 µM) | 2 µg/mL (≈ 3.09 µM) | 2 µg/mL (≈ 3.09 µM) | 31 µg/mL (≈ 47.9 µM) | 4 µg/mL (≈ 6.17 µM) |  |  |  |  |  |  | CCCCCCCCNC(=O)O[C@H]1C(O)[C@H](OCC23C[C@@H]4[C@H](C)CC[C@H]4C4(C=O)CC2C=C(C(C)C)C34C(=O)O)O[C@H](C)[C@H]1OC (some centres undefined)
10 |  |  |  |  |  |  | > 62 µg/mL | > 62 µg/mL | > 62 µg/mL | > 62 µg/mL | > 62 µg/mL | 62 µg/mL (≈ 81.5 µM) | CO[C@H]1[C@@H](OC(=O)OCc2ccccc2)[C@H](OC(=O)OCc2ccccc2)[C@H](OCC23C[C@@H]4[C@H](C)CC[C@H]4C4(C=O)CC2C=C(C(C)C)C34C(=O)O)O[C@@H]1C (some centres undefined)
11 |  |  |  |  |  |  | > 125 µg/mL | > 125 µg/mL | 8 µg/mL (≈ 11.6 µM) | > 125 µg/mL | 8 µg/mL (≈ 11.6 µM) | 4 µg/mL (≈ 5.81 µM) | CCCCCC(=O)O[C@H]1[C@H](OC(=O)CCCCC)[C@H](OCC23C[C@@H]4[C@H](C)CC[C@H]4C4(C=O)CC2C=C(C(C)C)C34C(=O)O)O[C@H](C)[C@H]1OC (some centres undefined)
12 | 0.015 µg/mL (≈ 0.025 µM) | 0.03 µg/mL (≈ 0.0499 µM) | 0.06 µg/mL (≈ 0.0999 µM) | 0.03 µg/mL (≈ 0.0499 µM) | 0.25 µg/mL (≈ 0.416 µM) | 0.25 µg/mL (≈ 0.416 µM) |  |  |  |  |  |  | C/C=C/C=C(\C)C(=O)O[C@H]1C(O)[C@H](OCC23C[C@@H]4[C@H](C)CC[C@H]4C4(C=O)CC2C=C(C(C)C)C34C(=O)O)O[C@H](C)[C@H]1OC (some centres undefined)
13 | 0.015 µg/mL (≈ 0.0249 µM) | 0.12 µg/mL (≈ 0.199 µM) | 0.5 µg/mL (≈ 0.83 µM) | 0.5 µg/mL (≈ 0.83 µM) | 62 µg/mL (≈ 103 µM) | 1 µg/mL (≈ 1.66 µM) |  |  |  |  |  |  | CCC/C=C(\C)C(=O)O[C@H]1C(O)[C@H](OCC23C[C@@H]4[C@H](C)CC[C@H]4C4(C=O)CC2C=C(C(C)C)C34C(=O)O)O[C@H](C)[C@H]1OC (some centres undefined)
14 | 2 µg/mL (≈ 3.41 µM) | 4 µg/mL (≈ 6.82 µM) | 8 µg/mL (≈ 13.6 µM) | 16 µg/mL (≈ 27.3 µM) | > 125 µg/mL | 16 µg/mL (≈ 27.3 µM) |  |  |  |  |  |  | CO[C@H]1C(OC(=O)c2ccco2)C(O)[C@H](OCC23C[C@@H]4[C@H](C)CC[C@H]4C4(C=O)CC2C=C(C(C)C)C34C(=O)O)O[C@@H]1C (single isomer, unassigned)
15 | 62 µg/mL (≈ 110 µM) | 16 µg/mL (≈ 28.3 µM) | > 125 µg/mL | 125 µg/mL (≈ 221 µM) | 125 µg/mL (≈ 221 µM) | > 125 µg/mL |  |  |  |  |  |  | COCC(=O)OC1C(O)[C@H](OCC23C[C@@H]4[C@H](C)CC[C@H]4C4(C=O)CC2C=C(C(C)C)C34C(=O)O)O[C@H](C)[C@H]1OC (single isomer, unassigned)
16 | < 0.001 µg/mL | 0.004 µg/mL (≈ 0.00646 µM) | 0.06 µg/mL (≈ 0.097 µM) | 0.03 µg/mL (≈ 0.0485 µM) | 0.25 µg/mL (≈ 0.404 µM) | 0.06 µg/mL (≈ 0.097 µM) |  |  |  |  |  |  | CCCCCCCC(=O)OC1C(O)[C@H](OCC23C[C@@H]4[C@H](C)CC[C@H]4C4(C=O)CC2C=C(C(C)C)C34C(=O)O)O[C@H](C)[C@H]1OC (single isomer, unassigned)
17 | 8 µg/mL (≈ 16.2 µM) | 16 µg/mL (≈ 32.5 µM) | 16 µg/mL (≈ 32.5 µM) | 31 µg/mL (≈ 62.9 µM) | > 125 µg/mL | 31 µg/mL (≈ 62.9 µM) |  |  |  |  |  |  | COC1C(O)C(O)[C@H](OCC23C[C@@H]4[C@H](C)CC[C@H]4C4(C=O)CC2C=C(C(C)C)C34C(=O)O)O[C@@H]1C (single isomer, unassigned)
18 | 0.25 µg/mL (≈ 0.444 µM) | 0.5 µg/mL (≈ 0.889 µM) | 2 µg/mL (≈ 3.55 µM) | 2 µg/mL (≈ 3.55 µM) | > 125 µg/mL | 1 µg/mL (≈ 1.78 µM) |  |  |  |  |  |  | CCCC(=O)OC1C(O)[C@H](OCC23C[C@@H]4[C@H](C)CC[C@H]4C4(C=O)CC2C=C(C(C)C)C34C(=O)O)O[C@H](C)[C@H]1OC (single isomer, unassigned)
19 |  |  |  |  |  |  | 62 µg/mL (≈ 105 µM) | 31 µg/mL (≈ 52.5 µM) | 31 µg/mL (≈ 52.5 µM) | 31 µg/mL (≈ 52.5 µM) | 31 µg/mL (≈ 52.5 µM) | 8 µg/mL (≈ 13.5 µM) | CCCCCC(=O)O[C@@H]1[C@H](OCC23C[C@@H]4[C@H](C)CC[C@H]4C4(C=O)CC2C=C(C(C)C)C34C(=O)O)O[C@H](C)C(OC)[C@H]1O (single isomer, unassigned)
